Bounds are passed on as bounds.

Experimental findings from patent US20230114241A1, “METHODS OF TREATING EPILEPSY USING THE SAME” (Trevena, Inc., priority 2019, published 2023) are described below.

Chain of human sphingosine-1-phosphate receptor 1 (S1P1) (P21453 whole entry): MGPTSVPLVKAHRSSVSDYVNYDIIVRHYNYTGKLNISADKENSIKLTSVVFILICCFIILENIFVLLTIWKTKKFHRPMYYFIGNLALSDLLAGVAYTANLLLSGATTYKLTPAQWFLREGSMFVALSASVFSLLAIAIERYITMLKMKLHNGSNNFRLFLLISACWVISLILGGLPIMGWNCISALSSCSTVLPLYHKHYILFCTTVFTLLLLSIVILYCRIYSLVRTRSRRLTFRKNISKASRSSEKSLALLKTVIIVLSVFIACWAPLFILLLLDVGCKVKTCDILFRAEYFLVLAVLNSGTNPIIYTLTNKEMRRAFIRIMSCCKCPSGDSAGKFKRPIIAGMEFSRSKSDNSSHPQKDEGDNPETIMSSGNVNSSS

One experiment has as its target human sphingosine-1-phosphate receptor 1 (S1P1) (Homo sapiens, UniProt P21453). Kind of experiment: Inhibition of cAMP production (HTRF cAMP HiRange), S1P1 CHO-K1 cells. The class given is cell-based. Particulars: inhibition of cAMP production, S1P1; read-out: hS1P1 CAMP pEC50 (converted). An outline of the steps:
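Intracellular cAMP changes read by TR-FRET (HTRF HiRange, 1 h room temperature) after 30 min compound exposure at 37 °C. Cells: overnight-plated CHO-K1 stably expressing tagged human S1P1 with EA-β-arrestin2. Responses normalized to fingolimod.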
`Cc1ccccc1-c1c[nH]c(-c2ccc3c(c2)nnn3C(C)C)c1` [Compound 516, 5-[4-(2-methylphenyl)-1H-pyrrol-2-yl]-1-(propan-2-yl)-1H-1,2,3-benzotriazole]: the EC50 is over 316 nM.
`CC(C)n1nnc2cc(-c3noc(-c4ccccc4N)n3)ccc21` [Compound 576, 2-{3-[1-(propan-2-yl)-1H-1,2,3-benzotriazol-5-yl]-1,2,4-oxadiazol-5-yl}aniline]: the EC50 is under 316 nM.
As for `CC(C)n1nnc2cc(-c3nc(-c4ccccn4)co3)ccc21` [Compound 474, 1-(propan-2-yl)-5-[4-(pyridin-2-yl)-1,3-oxazol-2-yl]-1H-1,2,3-benzotriazole], the EC50 was over 316 nM.
Take `COc1ncccc1-c1nc(-c2ccc3c(c2)nnn3C(C)C)no1` [Compound 607, 3-(1-isopropyl-1H-benzo[d][1,2,3]triazol-5-yl)-5-(2-methoxy-pyridin-3-yl)-1,2,4-oxadiazole]: the EC50 is under 316 nM.
Still for that read-out and setting: with `COc1cc(C)c2nc(-c3ccc4c(c3)nnn4C(C)C)oc2c1` [Compound 436, 2-(1-isopropyl-1H-benzo[d][1,2,3]triazol-5-yl)-6-methoxy-4-methylbenzo[d]oxazole] the figure was under 316 nM; with `Cc1ccccc1-c1coc(-c2ccc3c(c2)nnn3C(C)C)n1` [Compound 433, 5-[4-(2-methylphenyl)-1,3-oxazol-2-yl]-1-(propan-2-yl)-1H-1,2,3-benzotriazole], under 316 nM; with `CNc1ccccc1-c1nc(-c2ccc3c(c2)nnn3C(C)C)no1` [Compound 599, N-methyl-2-{3-[1-(propan-2-yl)-1H-l,2,3-benzotriazol-5-yl]-1,2,4-oxadiazol-5-yl}aniline], under 316 nM.
On the same count and under the same terms, with `CC(C)(O)Cn1nnc2cc(-c3nc(-c4cccc5cc[nH]c45)no3)ccc21` [Compound 577, 1-{5-[3-(1H-indol-7-yl)-1,2,4-oxadiazol-5-yl]-1H-1,2,3-benzotriazol-1-yl}-2-methylpropan-2-ol] the figure was over 316 nM.
Still for that read-out and setting: next, `Cc1ccsc1-c1nc(-c2ccc3c(c2)nnn3C(C)(C)CO)no1` [Compound 611, 2-methyl-2-(5-(5-(3-methylthiophen-2-yl)-1,2,4-oxadiazol-3-yl)-1H-benzo[d] [1,2,3]triazol-1-yl)propan-1-ol]: under 316 nM.

The experiment is the same for the next values; noted with them: inhibition of cAMP production; potency; read-out: hS1P1 CAMP pEC50 (converted).
As to `N#Cc1cc(-c2nnc(-c3ccc4[nH]cnc4c3)o2)ccc1NCC(F)F` [Compound 359, 5-[5-(1H-1,3-benzo-diazol-5-yl)-1,3,4-oxadiazol-2-yl]-2-[(2,2-difluoroethyl)amino] benzonitrile], the EC50 was under 316 nM.
Still for that read-out and setting: with `CCC1(CC)CC(=O)c2cc(-c3nc(-c4ccc(S(N)(=O)=O)cc4)no3)ccc2O1` [Compound 106, 4-(5-(2,2-diethyl-4-oxochroman-6-yl)-1,2,4-oxadiazol-3-yl)benzenesulfonamide] the figure was under 316 nM.
On the same count and under the same terms, with `COc1cccc(F)c1-c1noc(-c2ccc3c(c2)nnn3C(C)C)n1` [Compound 260, 3-(2-fluoro-6-methoxy-phenyl)-5-(1-isopropylbenzo-triazol-5-yl)-1,2,4-oxadiazole] the figure was over 316 nM; with `C=CCNc1ccc(-c2nc(-c3ccc4c(c3)CC(=O)N4)no2)cc1C#N` [Compound 224, 2-(allylamino)-5-(3-(2-oxoindolin-5-yl)-1,2,4-oxadiazol-5-yl)benzonitrile], under 316 nM.
On the same count and under the same terms, next, `CC(C)n1nnc2cc(-c3nc(-c4ccc5ccccc5n4)no3)ccc21` [Compound 168, 2-{5-[1-(propan-2-yl)-1H-1,2,3-benzotriazol-5-yl]-1,2,4-oxadiazol-3-yl}quinoline]: over 316 nM.
With `CCC1(CC)CC(=O)c2cc(-c3nc(-c4ccc(NS(C)(=O)=O)cc4)no3)ccc2O1` [Compound 262, N-(4-(5-(2,2-diethyl-4-oxochroman-6-yl)-l,2,4-oxadiazol-3-yl)phenyl)methane-sulfonamide], the EC50 was under 316 nM.
On the same count and under the same terms, next, `CCC1(CC)CC(=O)c2cc(-c3nc(-c4cccnc4)ns3)ccc2O1` [Compound 309, 2,2-diethyl-6-(3-(pyridin-3-yl)-1,2,4-thiadiazol-5-yl)chroman-4-one]: over 316 nM.
Same read-out and setting: next, `N#Cc1cc(-c2nnc(-c3ccc4[nH]ncc4c3)o2)ccc1NCC1CC1` [Compound 352]: under 316 nM; `Cc1ccncc1-c1noc(-c2ccc3c(c2)nnn3C2CC2)n1` [Compound 94, 1-cyclopropyl-5-[3-(4-methylpyridin-3-yl)-1,2,4-oxadiazol-5-yl]-1H-1,2,3-benzotriazole]: over 316 nM; `Cc1ccc(-c2noc(-c3ccc4c(c3)nnn4C3CC3)n2)cn1` [Compound 87, 1-cyclopropyl-5-[3-(6-methylpyridin-3-yl)-1,2,4-oxadiazol-5-yl]-1H-1,2,3-benzotriazole]: over 316 nM.
For the molecule `CC(C)n1nnc2cc(-c3nnc(-c4ccccc4O)s3)ccc21` [Compound 70, 2-{5-[1-(propan-2-yl)-1H-1,2,3-benzotriazol-5-yl]-1,3,4-thiadiazol-2-yl}phenol], the EC50 is under 316 nM.
Still for that read-out and setting: with `CCCn1nnc2cc(-c3nc(-c4cccc(C(F)(F)F)c4)no3)ccc21` [Compound 242, 1-propyl-5-{3-[3-(trifluoromethyl)phenyl]-1,2,4-oxadiazol-5-yl}-1H-1,2,3-benzotriazole] the figure was over 316 nM; with `COc1ccccc1-c1nc(-c2ccc3c(c2)nnn3C(C)C)ns1` [Compound 138, 5-[5-(2-methoxyphenyl)-1,2,4-thiadiazol-3-yl]-1-(propan-2-yl)-1H-1,2,3-benzotriazole], under 316 nM.
In the case of `CC(C)n1nnc2cc(C(=O)Nc3noc4ccccc34)ccc21` [Compound 181, N-(benzo[d]isoxazol-3-yl)-1-isopropyl-1H-benzo[d][1,2,3]triazole-5-carboxamide], the EC50 was over 316 nM.
For the molecule `Clc1ccc(-c2noc(-c3ccc4c(c3)nnn4C3CCOCC3)n2)s1` [Compound 82, 5-[3-(5-chlorothiophen-2-yl)-1,2,4-oxadiazol-5-yl]-1-(oxan-4-yl)-1H-1,2,3-benzotriazole], the EC50 was over 316 nM.
Still for that read-out and setting: with `FC(F)(F)c1cc(-c2noc(-c3ccc4c(c3)nnn4C3CCCC3)n2)ccc1OCc1cccnc1` [Compound 4, 1-cyclopentyl-5-{3-[4-(pyridin-3-ylmethoxy)-3-(trifluoromethyl)phenyl]-1,2,4-oxadiazol-5-yl}-1H-1,2,3-benzotriazole] the figure was over 316 nM.
Take `CC1(C)CC(=O)c2cc(-c3nc(-c4ccncc4)no3)ccc2O1` [Compound 291, 2,2-dimethyl-6-[3-(pyridin-4-yl)-1,2,4-oxadiazol-5-yl]-3,4-dihydro-2H-1-benzopy ran-4-one]: the EC50 was over 316 nM.
Take `COc1ccc(-c2noc(-c3ccc4c(c3)nnn4C3CCCCC3)n2)cc1C(F)(F)F` [Compound 284, 1-cyclohexyl-5-{3-[4-methoxy-3-(trifluoro-methyl)phenyl]-1,2,4-oxadiazol-5-yl}-1H-1,2,3-benzotriazole]: the EC50 was over 316 nM.
Still for that read-out and setting: with `Brc1ccccc1-c1nc(-c2ccc3c(c2)nnn3CC2CC2)no1` [Compound 98, 5-(2-bromophenyl)-3-(1-(cyclopropylmethyl)-1H-benzo[d][1,2,3]triazol-5-yl)-1,2,4-oxadiazole] the figure was over 316 nM.
As to `COc1cc(-c2noc(-c3ccc4c(c3)nnn4C3CCCC3)n2)ccn1` [Compound 281, 1-cyclopentyl-5-[3-(2-methoxypyridin-4-yl)-1,2,4-oxadiazol-5-yl]-1H-1,2,3-benzotriazole], the EC50 was over 316 nM.
As to `COc1cccc(OC)c1-c1noc(-c2ccc3c(cnn3C(C)C)c2)n1` [Compound 335, 3-(2,6-dimethoxy-phenyl)-5-(1-isopropylindazol-5-yl)-1,2,4-oxadiazole], the EC50 is over 316 nM.
Turning to `Cc1cnc(-c2noc(-c3ccc4c(c3)nnn4C3CCOCC3)n2)cn1` [Compound 6, 5-[3-(5-methylpyrazin-2-yl)-1,2,4-oxadiazol-5-yl]-1-(oxan-4-yl)-1H-1,2,3-benzotriazole], the EC50 was over 316 nM.
Turning to `Brc1ccccc1-c1noc(-c2ccc3c(c2)nnn3C2CCOCC2)n1` [Compound 233, 5-[3-(2-bromophenyl)-1,2,4-oxadiazol-5-yl]-1-(oxan-4-yl)-1H-1,2,3-benzotriazole], the EC50 is over 316 nM.
Still for that read-out and setting: with `CSc1ccc(-c2nc(-c3ccc4c(c3)nnn4C3CCCC3)no2)cc1` [Compound 237, 3-(1-cyclopentyl-1H-benzo[d][1,2,3]triazol-5-yl)-5-(4-(methyl-thio)phenyl)-1,2,4-oxadiazole] the figure was over 316 nM.
The same measure, in the same setting: next, `Cc1ccccc1Cc1noc(-c2ccc3c(c2)nnn3C(C)C)n1` [Compound 202, 5-{3-[(2-methyl-phenyl)methyl]-1,2,4-oxadiazol-5-yl}-1-(propan-2-yl)-1H-1,2,3-benzotriazole]: over 316 nM; `CC(C)n1ncc2cc(-c3nc(-c4cccc5c4OCCC5)no3)ccc21` [Compound 337, 3-chroman-8-yl-5-(1-isopropylindazol-5-yl)-1,2,4-oxadiazole]: under 316 nM; `CCCCC1(CCCC)CC(=O)c2cc(-c3nc(-c4cccnc4)no3)ccc2O1` [Compound 188, 2,2-dibutyl-6-[3-(pyridin-3-yl)-1,2,4-oxadiazol-5-yl]-3,4-dihydro-2H-1-benzo-pyran-4-one]: over 316 nM.
Still for that read-out and setting: with `CCC1(CC)CC(=O)c2cc(-c3nc(-c4ccnc(C(F)(F)F)c4)no3)ccc2O1` [Compound 314, 2,2-diethyl-6-(3-(2-(trifluoromethyl)pyridin-4-yl)-1,2,4-oxadiazol-5-yl)chroman-4-one] the figure was over 316 nM.
Turning to `CC(C)n1ncc2cc(-c3nc(-c4ccccc4Br)no3)ccc21` [Compound 332, 3-(2-bromophenyl)-5-(1-isopropyl-1H-indazol-5-yl)-1,2,4-oxadiazole], the EC50 is under 316 nM.
For `CC(C)Oc1ccc(-c2nc(-c3ccc4c(c3)nnn4C3CCCC3)no2)cc1` [Compound 121, 3-(1-cyclopentyl-1H-benzo[d][1,2,3]triazol-5-yl)-5-(4-isopropoxyphenyl)-1,2,4-oxadiazole], the EC50 is over 316 nM.
